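Compound exposure: 48 hours, 5 concentrations, 96-well plates. GI50 = concentration required for 50% inhibition of growth. The concentration for full growth arrest is given as TGI.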
Experiments:
Experiment in all cases: inhibition of tumour cell growth, NCI panel, 48 h
[1] = system: U251 CNS
[2] = system: PC-3 prostate
[3] = system: OVCAR-8 ovarian
[4] = system: SNB-19 CNS
[5] = system: SK-OV-3 ovarian
[6] = system: MOLT-4 leukemia
[7] = system: SR leukemia
[8] = system: RPMI-8226 leukemia
[9] = system: RXF 393 renal
[10] = system: CAKI-1 renal
[11] = system: OVCAR-4 ovarian
[12] = system: NCI-H226 lung
[13] = system: HCC-2998 colon
[14] = system: MDA-MB-435
[15] = system: HT29 colon
[16] = system: SF-268 CNS
[17] = system: UACC-62 melanoma
[18] = system: CCRF-CEM leukemia
[19] = system: MDA-MB-231 breast
[20] = system: A549 NSCLC
[21] = system: UACC-257 melanoma
[22] = system: NCI-H460 lung
[23] = system: LOX IMVI melanoma
[24] = system: SN12C renal
[25] = system: OVCAR-5 ovarian
[26] = system: MCF7 breast
[27] = system: K-562 leukemia
[28] = system: HS 578T breast
[29] = system: SNB-75 CNS
[30] = system: HCT-15 colon
[31] = system: NCI-H23 lung
[32] = system: SW-620 colon
[33] = system: ACHN renal
[34] = system: HL-60(TB) leukemia
[35] = system: SF-295 CNS
[36] = system: EKVX NSCLC
[37] = system: COLO 205 colon
[38] = system: SF-539 CNS
[39] = system: DU-145 prostate
[40] = system: IGROV1 ovarian
[41] = system: BT-549 breast
[42] = system: T-47D breast
[43] = system: SK-MEL-2 melanoma
[44] = system: UO-31 renal
[45] = system: A498 renal
[46] = system: MALME-3M melanoma
[47] = system: HOP-62 NSCLC
[48] = system: OVCAR-3 ovarian
[49] = system: SK-MEL-28 melanoma
[50] = system: TK-10 renal
[51] = system: NCI/ADR-RES ovarian
[52] = system: 786-0 renal
[53] = system: HOP-92 NSCLC
[54] = system: SK-MEL-5 melanoma
[55] = system: KM12 colon

SMILES: CCN1CCN(C(=O)[C@]23CC[C@@H](C)[C@H](C)[C@@H]2C2=CC[C@@H]4[C@@]5(C)C/C(=C/c6ccncc6)C(=O)C(C)(C)[C@@H]5CC[C@@]4(C)[C@]2(C)CC3)CC1
- GI50 [1]: 1.72 µM
- TGI [1]: 3.38 µM
- GI50 [2]: 1.34 µM
- TGI [2]: 3.01 µM
- GI50 [3]: 2.26 µM
- TGI [3]: 5.75 µM
- GI50 [4]: 1.58 µM
- TGI [4]: 2.99 µM
- GI50 [5]: 1.83 µM
- TGI [5]: 3.67 µM
- GI50 [6]: 1.78 µM
- TGI [6]: 4.57 µM
- GI50 [7]: 1.89 µM
- TGI [7]: 5.29 µM
- GI50 [8]: 1.88 µM
- TGI [8]: 5.91 µM
- GI50 [9]: 1.39 µM
- TGI [9]: 2.79 µM
- GI50 [10]: 1.32 µM
- TGI [10]: 2.8 µM
- GI50 [11]: 1.65 µM
- TGI [11]: 3.18 µM
- GI50 [12]: 1.75 µM
- TGI [12]: 3.64 µM
- GI50 [13]: 1.5 µM
- TGI [13]: 3.03 µM
- GI50 [14]: 1.62 µM
- TGI [14]: 3.24 µM
- GI50 [15]: 1.59 µM
- TGI [15]: 4.08 µM
- GI50 [16]: 1.64 µM
- TGI [16]: 3.13 µM
- GI50 [17]: 1.53 µM
- TGI [17]: 2.87 µM
- GI50 [18]: 2.42 µM
- TGI [18]: 6.28 µM
- GI50 [19]: 1.55 µM
- TGI [19]: 2.95 µM
- GI50 [20]: 1.78 µM
- TGI [20]: 3.72 µM
- GI50 [21]: 1.84 µM
- TGI [21]: 3.92 µM
- GI50 [22]: 1.7 µM
- TGI [22]: 3.25 µM
- GI50 [23]: 1.51 µM
- TGI [23]: 2.98 µM
- GI50 [24]: 1.63 µM
- TGI [24]: 2.99 µM
- GI50 [25]: 1.46 µM
- TGI [25]: 2.77 µM
- GI50 [26]: 1.57 µM
- TGI [26]: 3.2 µM
- GI50 [27]: 2.47 µM
- TGI [27]: 7.25 µM
- GI50 [28]: 1.81 µM
- TGI [28]: 4.3 µM
- GI50 [29]: 1.27 µM
- TGI [29]: 2.67 µM
- GI50 [30]: 1.65 µM
- TGI [30]: 3.35 µM
- GI50 [31]: 1.75 µM
- TGI [31]: 3.41 µM
- GI50 [32]: 1.71 µM
- TGI [32]: 3.7 µM
- GI50 [33]: 1.73 µM
- TGI [33]: 3.1 µM
- GI50 [34]: 1.9 µM
- TGI [34]: 4.9 µM
- GI50 [35]: 1.55 µM
- TGI [35]: 2.88 µM
- GI50 [36]: 1.47 µM
- TGI [36]: 3.41 µM
- GI50 [37]: 2.11 µM
- TGI [37]: 5.62 µM
- GI50 [38]: 1.73 µM
- TGI [38]: 3.11 µM
- GI50 [39]: 1.87 µM
- TGI [39]: 3.43 µM
- GI50 [40]: 1.7 µM
- TGI [40]: 3.36 µM
- GI50 [41]: 1.78 µM
- TGI [41]: 3.78 µM
- GI50 [42]: 1.56 µM
- TGI [42]: 3.49 µM
- GI50 [43]: 1.91 µM
- TGI [43]: 3.84 µM
- GI50 [44]: 1.37 µM
- TGI [44]: 2.65 µM
- GI50 [45]: 1.49 µM
- TGI [45]: 2.9 µM
- GI50 [46]: 1.5 µM
- TGI [46]: 2.83 µM
- GI50 [47]: 2.37 µM
- TGI [47]: 5.75 µM
- GI50 [48]: 1.56 µM
- TGI [48]: 2.94 µM
- GI50 [49]: 1.65 µM
- TGI [49]: 3.03 µM
- GI50 [50]: 1.73 µM
- TGI [50]: 3.31 µM
- GI50 [51]: 1.7 µM
- TGI [51]: 3.69 µM
- GI50 [52]: 1.73 µM
- TGI [52]: 3.43 µM
- GI50 [53]: 1.14 µM
- TGI [53]: 2.51 µM
- GI50 [54]: 1.75 µM
- TGI [54]: 3.14 µM
- GI50 [55]: 1.87 µM
- TGI [55]: 3.66 µM

Reference: PubChem BioAssay (NCI)
